# Patent publication US4943629A, “Antidiabetic alpha-substituted phosphonates” (American Cyanamid Company, priority 1988, dated 1990)
# pEC50, pIC50: −log10 of the molar value.
# Experiments:
# [1] = target: T1, purified rat liver 6-phosphofructo-1-kinase (Rattus norvegicus, UniProt P30835); assay: stimulation of 6-phosphofructo-1-kinase (PFK), aldolase-coupled spectrophotometric assay; type: biochemical; conditions: pH 7.3, 30° C., 1 mM ATP, 0.2 mM fructose-6-phosphate, read-out: PFK ED50
# T1 construct: purified rat liver 6-phosphofructo-1-kinase; from tissue; host or cells: rat liver
# T1 sequence (P30835 2-780 limits assumed): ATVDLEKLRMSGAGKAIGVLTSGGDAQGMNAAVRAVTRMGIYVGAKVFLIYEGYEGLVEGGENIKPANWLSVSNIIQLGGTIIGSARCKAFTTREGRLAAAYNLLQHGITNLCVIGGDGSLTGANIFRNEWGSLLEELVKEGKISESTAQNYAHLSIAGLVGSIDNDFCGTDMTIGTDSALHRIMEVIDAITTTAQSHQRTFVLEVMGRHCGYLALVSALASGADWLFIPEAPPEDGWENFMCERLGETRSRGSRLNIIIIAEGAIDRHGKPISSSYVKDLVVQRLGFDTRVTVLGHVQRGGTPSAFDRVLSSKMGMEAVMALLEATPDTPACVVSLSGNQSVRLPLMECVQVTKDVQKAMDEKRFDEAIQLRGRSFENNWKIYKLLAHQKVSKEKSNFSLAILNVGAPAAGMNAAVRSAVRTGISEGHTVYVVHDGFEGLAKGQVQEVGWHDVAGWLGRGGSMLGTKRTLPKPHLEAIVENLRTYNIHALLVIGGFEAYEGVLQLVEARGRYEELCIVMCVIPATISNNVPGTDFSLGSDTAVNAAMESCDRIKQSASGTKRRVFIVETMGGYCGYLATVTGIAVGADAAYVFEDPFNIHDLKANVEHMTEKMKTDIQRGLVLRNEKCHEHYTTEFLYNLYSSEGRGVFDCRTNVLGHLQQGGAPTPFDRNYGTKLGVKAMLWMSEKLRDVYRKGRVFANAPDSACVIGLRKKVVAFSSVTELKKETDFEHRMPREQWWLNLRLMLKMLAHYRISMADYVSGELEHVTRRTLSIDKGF
# Experimental: (§1) The novel compounds of this invention were tested for their ability to stimulate the enzyme 6-phosphofructo-1-kinase ("PFK") and for their ability to inhibit the enzyme fructose-1,6-bisphosphatase ("FBP") using the procedures described below.
# Effects on the activity of PFK were determined using an aldolase-coupled, spectrophotometric assay. The assay mixture contained: 50 mM N-tris(hydroxymethyl) methyl-2-aminoethanesulfonic acid, hydrochloride ("TES-HCl", pH 7.3); 1 mM ethylenediaminetetraacetic acid ("EDTA"); 6 mM magnesium chloride; 2.5 mM dithiothreitol; 0.165 mM nicotinamide adenine dinucleotide ("NADH"); 1 mM adenosine triphosphate ("ATP"); 0.04U aldolase; 0.4U triose phosphate isomerase; 1.5U alpha-glycerolphosphate dehydrogenase; 0.lU of purified rat liver 6-phosphofructo-1-kinase; and various concentrations of the test compound, all in a final volume of 1 ml. The mixture was preincubated for 3 minutes at 30° C. and then the reaction was initiated with 0.2 mM fructose-6-phosphate. The rate of decrease in absorbance at 340 nm was measured at 30° C. with a recording spectrophotometer.
# [2] = target: T2, purified rat liver FBP (fructose-1,6-bisphosphatase) (Rattus norvegicus, UniProt P19112); assay: inhibition of fructose-1,6-bisphosphatase (FBP), spectrophotometric assay; type: biochemical; conditions: pH 7.4, 30° C., 0.02 mM fructose-1,6-bis-phosphate
# T2 construct: purified rat liver FBP; from tissue; host or cells: rat liver
# T2 sequence (P19112 2-363 limits assumed): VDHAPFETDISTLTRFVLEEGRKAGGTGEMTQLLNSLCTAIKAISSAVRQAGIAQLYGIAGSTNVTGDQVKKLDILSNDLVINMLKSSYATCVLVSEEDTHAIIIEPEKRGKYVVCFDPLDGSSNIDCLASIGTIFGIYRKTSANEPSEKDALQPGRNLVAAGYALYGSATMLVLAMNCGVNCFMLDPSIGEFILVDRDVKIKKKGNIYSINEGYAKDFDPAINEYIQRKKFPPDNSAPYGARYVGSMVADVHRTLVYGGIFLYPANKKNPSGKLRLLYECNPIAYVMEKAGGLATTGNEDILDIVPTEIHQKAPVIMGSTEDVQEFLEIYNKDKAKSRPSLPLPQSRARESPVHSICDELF
# Experimental: as §1
# Effects on the activity of FBP were determined using a spectrophotometric assay. The assay mixture contained: 100 mM tris(hydroxymethyl)aminomethane, hydrochloride ("TRIS-HCl", pH 7.4); 2.5 mM beta-mercaptoethanol; 2 mM magnesium chloride; 0.05 mM EDTA; 0.2 mM nicotinamide adenine dinucleotide phosphate ("NADP"); 10 U phosphoglucose isomerase; 5 U glucose-6-phosphate dehydrogenase; 0.02U of purified rat liver FBP; and various concentrations of the test compound, all in a final volume of 1 ml. The mixture was preincubated for 3 minutes at 30° C. and then the reaction was initiated with 0.02 mM fructose-1,6-bis-phosphate. The rate of increase in absorbance at 340 nm was measured at 30° C. with a recording spectrophotometer
pEC50 [1],pIC50 [2],Compound
5.00,4.27,"O=P(O)(O)OC[C@H]1OC(C(F)P(=O)(O)O)[C@@H](O)[C@@H]1O (mixture of isomers) [2,5-Anhydro-1-deoxy-1-fluoro-1-phosphono-D-glucitol and D-mannitol, 6-(dihydrogen phosphate) mixture (70:30)]"
6.15,3.96,"O=P(O)(O)OC[C@H]1O[C@@](CO)(C(F)P(=O)(O)O)[C@@H](O)[C@@H]1O (single isomer, unassigned) [2,5-Anhydro-1-deoxy-1-fluoro-2-(hydroxymethyl)-1-phosphono-D-glucitol, 6-(dihydrogen phosphate)]"
4.85,3.65,"O=P(O)(O)OC[C@H]1O[C@H](C(F)(F)P(=O)(O)O)[C@@H](O)[C@@H]1O [2,5-Anhydro-1-deoxy-1,1-difluoro-1-phosphono-D-mannitol, 6-(dihydrogen phosphate)]"
4.66,3.94,"O=P(O)(O)OC[C@H]1O[C@H](C(F)P(=O)(O)O)[C@@H](O)[C@@H]1O (stereo partly drawn) [2,5-Anhydro-1-deoxy-1-fluoro-1-phosphono-D-mannitol, 6-(dihydrogen phosphate)]"
5.89,3.42,"O=P(O)(O)OC[C@H]1O[C@](CO)(C(F)P(=O)(O)O)[C@@H](O)[C@@H]1O (stereo partly drawn) [2,5-Anhydro-2-C-(fluorophosphonomethyl)-D-glucitol, 6-(dihydrogen phosphate)]"
4.70,3.41,"O=P(O)(O)OC[C@H]1O[C@](CO)(C(O)P(=O)(O)O)[C@@H](O)[C@@H]1O (stereo partly drawn) [2,5-Anhydro-2-C-(hydroxyphosphonomethyl)-D-glucitol, 6-(dihydrogen phosphate)]"
5.52,4.57,"O=P(O)(O)OC[C@H]1O[C@H](CC(F)(F)P(=O)(O)O)[C@@H](O)[C@@H]1O [3,6-Anhydro-1,2-dideoxy-1,1-difluoro-1-phosphono-D-manno-heptitol, 7-(dihydrogen phosphate)]"
5.89,4.21,"O=P(O)(O)OC[C@H]1O[C@H](CC(F)P(=O)(O)O)[C@@H](O)[C@@H]1O (stereo partly drawn) [[1R(and 1S)]-3,6-Anhydro-1,2-dideoxy-1-fluoro-1-phosphono-D-manno-heptitol, 7-(dihydrogen phosphate)]"
4.89,4.36,"O=P(O)(O)OC[C@H]1O[C@H](C(O)P(=O)(O)O)[C@@H](O)[C@@H]1O (stereo partly drawn) [[1R(and/or 1S)]-2,5-Anhydro-1-C-phosphono-D-mannitol, 6-(dihydrogen phosphate)]"
6.00,4.21,"O=P(O)(O)OC[C@H]1O[C@H](CC(O)P(=O)(O)O)[C@@H](O)[C@@H]1O (stereo partly drawn) [[1R(and/or 1S)]-3,6-Anhydro-2-deoxy-1-phosphono-D-manno-heptitol, 7-(dihydrogen phosphate)]"
